For one data set, the target named is T1, rKv4.2 D281A (Rattus norvegicus, UniProt Q63881, D281A).
T1 construct: expressed in transfected cells; host or cells: HEK293T
Description: Patch clamp of rKv4.2 mutant D281A. The settings on record: mean ± SEM. Type of data set: cell-based. In general terms: In patch-clamp work, channel activity is measured electrically.

A further data set concerns the target T2, rKv4.2 D281N (Rattus norvegicus, UniProt Q63881, D281N).
T2 construct: expressed in transfected cells; host or cells: HEK293T
Description: Patch clamp of rKv4.2 mutant D281N. Type of data set: cell-based. The settings on record: mean ± SEM.

In a further data set the target is T3, rKv4.2 E283K (Rattus norvegicus, UniProt Q63881, E283K).
T3 construct: expressed in transfected cells; host or cells: HEK293T
T3 sequence (Q63881 1-630 E283K): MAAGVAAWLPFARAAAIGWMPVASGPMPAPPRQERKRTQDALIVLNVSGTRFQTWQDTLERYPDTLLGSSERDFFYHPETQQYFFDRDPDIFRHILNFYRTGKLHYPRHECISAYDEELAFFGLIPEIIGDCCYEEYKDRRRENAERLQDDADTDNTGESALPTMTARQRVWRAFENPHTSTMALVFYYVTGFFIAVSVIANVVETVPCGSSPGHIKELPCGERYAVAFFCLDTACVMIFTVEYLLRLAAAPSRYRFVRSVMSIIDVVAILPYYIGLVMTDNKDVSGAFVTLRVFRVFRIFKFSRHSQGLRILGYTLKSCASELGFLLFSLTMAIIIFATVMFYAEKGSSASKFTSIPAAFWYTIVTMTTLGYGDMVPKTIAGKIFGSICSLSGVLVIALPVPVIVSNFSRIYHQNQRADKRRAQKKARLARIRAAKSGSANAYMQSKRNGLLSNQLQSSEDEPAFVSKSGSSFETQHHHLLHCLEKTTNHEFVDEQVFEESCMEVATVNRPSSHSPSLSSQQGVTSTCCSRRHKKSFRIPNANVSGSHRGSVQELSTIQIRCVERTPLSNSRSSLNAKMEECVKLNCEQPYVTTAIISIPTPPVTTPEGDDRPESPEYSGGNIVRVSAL
Description: cell-based. The settings on record: mean ± SEM.

The target in a further data set is T4, rKv4.2 D284A (Rattus norvegicus, UniProt Q63881, D284A).
T4 construct: expressed in transfected cells; host or cells: HEK293T
T4 sequence (Q63881 whole entry D284A): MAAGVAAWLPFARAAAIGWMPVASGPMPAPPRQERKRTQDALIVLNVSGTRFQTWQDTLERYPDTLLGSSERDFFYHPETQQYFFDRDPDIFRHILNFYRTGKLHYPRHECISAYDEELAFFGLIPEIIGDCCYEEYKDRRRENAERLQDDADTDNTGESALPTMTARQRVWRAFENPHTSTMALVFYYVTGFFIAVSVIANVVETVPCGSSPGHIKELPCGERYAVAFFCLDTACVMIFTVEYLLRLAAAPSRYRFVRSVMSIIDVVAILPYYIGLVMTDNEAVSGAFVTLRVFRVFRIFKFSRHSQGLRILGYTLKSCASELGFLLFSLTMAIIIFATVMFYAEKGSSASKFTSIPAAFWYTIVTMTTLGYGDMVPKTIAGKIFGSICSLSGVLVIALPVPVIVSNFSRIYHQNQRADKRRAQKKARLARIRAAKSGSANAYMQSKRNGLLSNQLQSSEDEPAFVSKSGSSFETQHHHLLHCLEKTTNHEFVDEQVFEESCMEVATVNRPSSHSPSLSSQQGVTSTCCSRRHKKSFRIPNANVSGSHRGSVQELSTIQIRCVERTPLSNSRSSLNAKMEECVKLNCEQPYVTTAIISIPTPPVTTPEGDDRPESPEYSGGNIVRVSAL
Description: Patch clamp of rKv4.2 mutant D284A. Format: cell-based. The settings on record: mean ± SEM.

Data set [1] deals with other Kv channels (hKv1.1-1.5, rKv2.1, hKv3.1-3.4, mKv4.1, hKv7.2 and hERG). The conditions noted are these: 1 µM toxin; n = 3-4.
The next data set has as its target T5, mKv4.1 (Mus musculus, UniProt Q03719).
T5 construct: expressed in transfected cells; host or cells: HEK293T
As to the kind of experiment: Whole-cell patch clamp of mKv4.1 currents. Type of data set: cell-based. The conditions noted are these: mean ± S.E.M., n = 5, SEM.

Another data set addresses T6, rKv2.1 (Rattus norvegicus, UniProt P15387).
T6 construct: expressed in transfected cells; host or cells: HEK293T
As to the kind of experiment: Whole-cell patch clamp of rKv2.1 currents. Format: cell-based. The conditions noted are these: mean ± S.E.M., n = 6, SEM.

Positions of bridges follow the written chain, without caps; N, C: chain ends. Residues, ends and D or L forms follow the SMILES beside them.

T1 sequence (Q63881 whole entry D281A): as the sequence (Q63881 whole entry D284A) above, with D281A, A284D counted along it
T2 sequence (Q63881 whole entry D281N): as the sequence (Q63881 whole entry D284A) above, with D281N, A284D counted along it
T6 sequence (P15387 whole entry): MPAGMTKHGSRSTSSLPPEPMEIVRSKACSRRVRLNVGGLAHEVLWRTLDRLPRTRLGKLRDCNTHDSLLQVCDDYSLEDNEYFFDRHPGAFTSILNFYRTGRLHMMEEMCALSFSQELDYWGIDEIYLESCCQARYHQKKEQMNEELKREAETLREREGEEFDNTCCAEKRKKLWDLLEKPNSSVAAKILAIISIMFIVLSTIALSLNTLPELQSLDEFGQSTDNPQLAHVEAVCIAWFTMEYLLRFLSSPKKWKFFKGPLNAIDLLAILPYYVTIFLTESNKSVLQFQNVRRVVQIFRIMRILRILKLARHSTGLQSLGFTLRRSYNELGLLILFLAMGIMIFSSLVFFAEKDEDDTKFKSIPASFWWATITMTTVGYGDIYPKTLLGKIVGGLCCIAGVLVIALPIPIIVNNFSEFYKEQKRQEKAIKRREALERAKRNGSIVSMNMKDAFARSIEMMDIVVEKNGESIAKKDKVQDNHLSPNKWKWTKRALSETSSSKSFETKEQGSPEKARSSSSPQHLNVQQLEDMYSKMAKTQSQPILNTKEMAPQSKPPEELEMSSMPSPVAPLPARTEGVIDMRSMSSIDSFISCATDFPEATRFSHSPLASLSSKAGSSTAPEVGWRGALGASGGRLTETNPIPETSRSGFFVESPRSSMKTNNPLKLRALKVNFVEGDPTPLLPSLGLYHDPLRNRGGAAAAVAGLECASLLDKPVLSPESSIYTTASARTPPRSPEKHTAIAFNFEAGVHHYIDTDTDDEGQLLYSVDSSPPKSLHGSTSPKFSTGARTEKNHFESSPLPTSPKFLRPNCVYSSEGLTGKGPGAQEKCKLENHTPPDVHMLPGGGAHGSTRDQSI
T5 sequence (Q03719 whole entry): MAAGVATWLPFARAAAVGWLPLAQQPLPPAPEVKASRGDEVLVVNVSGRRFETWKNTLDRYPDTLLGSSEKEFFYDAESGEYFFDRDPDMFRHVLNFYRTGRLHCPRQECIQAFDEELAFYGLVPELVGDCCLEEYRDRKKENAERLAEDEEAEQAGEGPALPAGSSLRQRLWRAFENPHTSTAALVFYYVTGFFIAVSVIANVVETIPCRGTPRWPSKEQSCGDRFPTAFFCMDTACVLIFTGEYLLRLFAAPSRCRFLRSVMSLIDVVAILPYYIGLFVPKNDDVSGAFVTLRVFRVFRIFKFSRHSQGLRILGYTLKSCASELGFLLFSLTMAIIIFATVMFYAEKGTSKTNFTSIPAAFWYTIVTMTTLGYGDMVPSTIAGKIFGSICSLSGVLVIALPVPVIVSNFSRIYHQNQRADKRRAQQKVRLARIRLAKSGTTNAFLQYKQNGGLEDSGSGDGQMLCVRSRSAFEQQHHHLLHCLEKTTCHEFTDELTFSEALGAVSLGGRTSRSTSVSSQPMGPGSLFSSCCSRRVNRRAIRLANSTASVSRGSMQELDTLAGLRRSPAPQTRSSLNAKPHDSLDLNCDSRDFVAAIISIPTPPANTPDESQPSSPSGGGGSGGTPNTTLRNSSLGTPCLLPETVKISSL

In general, IC50 refers to the concentration that gives 50% inhibition. For `CC(C)C[C@H](NC(=O)[C@H](Cc1ccc(O)cc1)NC(=O)[C@@H](NC(=O)[C@H](CCCCN)NC(=O)[C@@H]1CSSC[C@@H]2NC(=O)[C@H](CCC(=O)O)NC(=O)[C@H](CC(N)=O)NC(=O)[C@H](CCCCN)NC(=O)CNC(=O)[C@@H]3CCCN3C(=O)[C@H]([C@@H](C)O)NC(=O)[C@@H]3CSSC[C@H](NC(=O)[C@H](C)NC(=O)[C@H](Cc4ccc(O)cc4)NC(=O)[C@H](CC(N)=O)NC(=O)[C@@H]4CCCN4C(=O)[C@H](CSSC[C@H](NC(=O)CN)C(=O)N[C@@H](CCCCN)C(=O)NCC(=O)N[C@@H](Cc4ccccc4)C(=O)NCC(=O)N[C@@H](CC(=O)O)C(=O)N[C@@H](CO)C(=O)N3)NC2=O)C(=O)N[C@@H](CO)C(=O)N[C@@H](CO)C(=O)N[C@@H](CCCCN)C(=O)N[C@@H](Cc2c[nH]cn2)C(=O)N[C@@H](CCCCN)C(=O)N[C@@H](Cc2c[nH]c3ccccc23)C(=O)N1)C(C)C)C(N)=O` [HNTX-III] (H-GCKGFGDSCTPGKNECCPNYACSSKHKWCKVYL-NH2; disulfide 2-17, 9-22, 16-29), the half-inhibitory concentration (IC50) on rKv4.2 D281A was 214 ± 76 nM; at rKv4.2 D281N, 131 ± 32 nM; against rKv4.2 E283K, 3000 ± 1000 nM; at rKv4.2 D284A, 491 ± 72 nM. In addition, in data set [1], the “effect on the current traces of other Kv channels” value is “no obvious or only minimal effect”.

Take `CSCC[C@@H]1NC(=O)CNC(=O)[C@H](CCC(=O)O)NC(=O)[C@@H]2CSSC[C@H](NC(=O)[C@@H](N)Cc3ccc(O)cc3)C(=O)N[C@@H](CCC(N)=O)C(=O)N[C@@H](CCCCN)C(=O)N[C@@H](Cc3c[nH]c4ccccc34)C(=O)N[C@@H](CCSC)C(=O)N[C@@H](Cc3c[nH]c4ccccc34)C(=O)N[C@@H]([C@@H](C)O)C(=O)N[C@H]3CSSC[C@H](NC(=O)[C@H](C(C)C)NC1=O)C(=O)N[C@@H](CCCNC(=N)N)C(=O)N[C@@H](CC(C)C)C(=O)N[C@@H](Cc1c[nH]c4ccccc14)C(=O)N[C@H](C(=O)N[C@@H](CCCCN)C(=O)N[C@@H](CCCCN)C(=O)N[C@@H](CCCCN)C(=O)N[C@@H](CC(C)C)C(=O)N[C@@H](Cc1c[nH]c4ccccc14)C(=O)O)CSSC[C@H](NC(=O)[C@H](CCCCN)NC(=O)[C@H](CCCNC(=N)N)NC(=O)[C@H](CCC(=O)O)NC(=O)[C@H](CO)NC(=O)[C@H](CC(=O)O)NC3=O)C(=O)N2` [ProTx-II]: the IC50 at mKv4.1 worked out at 38.1 ± 5.3 nM; against rKv2.1 it was 78.7 ± 9 nM; against rKv4.2 E283K, 14 ± 6 nM.

Source of the values: PMC11558128 (Advanced Science, 2024).
